One assay deals with Carbonic anhydrase 9 (Homo sapiens, UniProt Q16790).
The target in a further assay is Carbonic anhydrase 2 (Homo sapiens, UniProt P00918). The assay can be described thus: Inhibition of human carbonic anhydrase 2.
The target in assay [1] is 72 kDa type IV collagenase (Homo sapiens) (UniProt P08253). The assay can be described thus: Inhibition of MMP2 at 3 uM.
Assay [2] shares this target. The assay can be described thus: Inhibition of MMP2 at 300 uM.
Assay [3] shares this target. As to the kind of experiment: Inhibition of MMP2 at 30 nM.
In assay [4] the target is T1, Matrilysin (Homo sapiens) (UniProt P09237).
T1 sequence (whole entry): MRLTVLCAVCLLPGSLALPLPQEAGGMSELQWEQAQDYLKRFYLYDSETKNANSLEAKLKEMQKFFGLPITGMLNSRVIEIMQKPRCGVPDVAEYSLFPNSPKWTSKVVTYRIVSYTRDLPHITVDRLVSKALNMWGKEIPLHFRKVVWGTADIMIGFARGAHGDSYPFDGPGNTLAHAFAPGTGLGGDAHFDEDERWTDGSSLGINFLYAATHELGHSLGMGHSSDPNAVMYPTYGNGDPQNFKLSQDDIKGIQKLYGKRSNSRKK
As to the kind of experiment: Inhibition of MMP7 at 100 uM.

Assay [5] deals with T1, Matrilysin (Homo sapiens). The assay can be described thus: Inhibition of MMP7 at 3 uM.
Assay [6] has as its target Matrix metalloproteinase-9 (Homo sapiens) (UniProt P14780). The assay can be described thus: Inhibition of MMP9 at 100 uM.
For assay [7] the target is unchanged. The assay can be described thus: Inhibition of MMP9 at 3 uM.
For assay [8] the target is unchanged. The assay can be described thus: Inhibition of MMP9 at 30 nM.
Assay [9] has as its target Matrix metalloproteinase-14 (Homo sapiens) (UniProt P50281). The assay can be described thus: Inhibition of MMP14 at 100 uM.
Assay [10] concerns the target 72 kDa type IV collagenase (Homo sapiens) (UniProt P08253). As to the kind of experiment: Inhibition of MMP2 at 100 uM.
For assay [11] the target is unchanged. As to the kind of experiment: Inhibition of MMP2 at 30 uM.
In assay [12] the target is Matrix metalloproteinase-9 (Homo sapiens) (UniProt P14780). The assay can be described thus: Inhibition of MMP9 at 10 uM.
Sequence of Matrix metalloproteinase-9 (Homo sapiens) (P14780 whole entry): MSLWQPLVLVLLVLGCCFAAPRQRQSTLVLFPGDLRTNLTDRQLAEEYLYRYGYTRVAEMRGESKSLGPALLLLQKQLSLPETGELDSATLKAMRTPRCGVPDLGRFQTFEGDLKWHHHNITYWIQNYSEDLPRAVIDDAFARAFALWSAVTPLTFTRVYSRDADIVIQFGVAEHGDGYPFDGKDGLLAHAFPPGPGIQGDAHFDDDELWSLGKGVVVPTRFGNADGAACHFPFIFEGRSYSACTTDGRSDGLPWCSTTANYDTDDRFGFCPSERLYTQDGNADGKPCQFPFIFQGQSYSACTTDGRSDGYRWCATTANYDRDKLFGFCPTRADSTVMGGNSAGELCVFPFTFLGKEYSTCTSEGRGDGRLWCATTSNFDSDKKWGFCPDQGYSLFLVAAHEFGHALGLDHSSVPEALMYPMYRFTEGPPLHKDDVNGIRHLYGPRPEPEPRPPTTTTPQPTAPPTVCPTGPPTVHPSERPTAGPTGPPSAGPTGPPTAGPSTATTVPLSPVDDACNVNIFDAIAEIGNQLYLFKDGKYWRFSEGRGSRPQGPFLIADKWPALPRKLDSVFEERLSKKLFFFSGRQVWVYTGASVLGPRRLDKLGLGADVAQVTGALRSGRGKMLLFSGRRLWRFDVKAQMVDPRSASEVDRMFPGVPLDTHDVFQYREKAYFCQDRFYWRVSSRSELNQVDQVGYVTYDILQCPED
The target is the same in assay [13]. As to the kind of experiment: Inhibition of MMP9 at 1 uM.
Assay [14] concerns the target Matrix metalloproteinase-14 (Homo sapiens) (UniProt P50281). As to the kind of experiment: Inhibition of MMP14 at 3 uM.

Sequence of 72 kDa type IV collagenase (Homo sapiens) (P08253 110-660 limits assumed): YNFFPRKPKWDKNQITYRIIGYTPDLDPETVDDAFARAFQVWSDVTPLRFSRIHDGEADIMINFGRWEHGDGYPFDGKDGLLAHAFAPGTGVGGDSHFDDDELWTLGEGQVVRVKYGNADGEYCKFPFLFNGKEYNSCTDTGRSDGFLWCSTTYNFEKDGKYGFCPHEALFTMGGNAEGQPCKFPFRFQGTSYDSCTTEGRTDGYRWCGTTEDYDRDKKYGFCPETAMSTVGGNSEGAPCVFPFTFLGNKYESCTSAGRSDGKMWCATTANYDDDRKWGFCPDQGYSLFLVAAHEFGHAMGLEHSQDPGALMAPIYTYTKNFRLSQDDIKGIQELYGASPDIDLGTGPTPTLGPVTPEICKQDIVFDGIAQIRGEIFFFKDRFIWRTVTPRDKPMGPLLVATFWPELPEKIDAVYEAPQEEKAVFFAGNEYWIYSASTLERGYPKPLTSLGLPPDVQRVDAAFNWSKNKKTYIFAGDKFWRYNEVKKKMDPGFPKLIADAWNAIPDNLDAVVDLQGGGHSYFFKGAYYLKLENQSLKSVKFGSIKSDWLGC
Description for Carbonic anhydrase 9: Inhibition of human carbonic anhydrase 9

Compound `NS(=O)(=O)c1ccc(NC(=O)CCCNc2ccn(O)c(=O)n2)cc1` gave a Ki on Carbonic anhydrase 9 of 3.4 nM.

On to `COC(=O)CCCCCNc1ccn(O)c(=O)n1`, for which the Ki was 270000 nM on Carbonic anhydrase 2 and over 1000 nM on Carbonic anhydrase 9.

On to `NCCCCNc1ccn(O)c(=O)n1`, for which the inhibition in assay [1] stood at 22%; in assay [2], 88%; in [3], 30%; in assay [4], 29%; in assay [5], 9%; in [6], 26%. Further, the inhibition came out at 6% in assay [7], 1% in assay [8] and 28% in assay [9].

Turning to `NS(=O)(=O)c1ccc(CCNc2ccn(O)c(=O)n2)cc1`, the inhibition in assay [10] is 86%; in assay [11] it was 19.6%; in assay [1] it was 7.4%; in assay [4] it was 38%; in assay [6], 67%; in [12], 9%. For the same compound, the inhibition in assay [13] came out at 6%; in [9], 48%.

Consider `NCCCCCNc1ccn(O)c(=O)n1`, for which the inhibition was 24% in [10]; 9% in [1]; 30% in assay [4]; 1% in [5]; 23% in [6]; 3% in [7]. Further, the inhibition in assay [9] amounted to 42%; in assay [14] it was 3%.

In turn, `NS(=O)(=O)c1ccc(CCNC(=O)CCCCCNc2ccn(O)c(=O)n2)cc1` returned a Ki at Carbonic anhydrase 9 of 4.1 nM.
